The source of these data is patent US4465683A, “Anti-psychotic agents” (priority 1979, dated 1984).

Where a name gives a salt, the structure may show the parent alone. Read-outs that look alike come from different tables or passages of the source.

Data set [1] deals with conditioned avoidance response (CAR). Kind of data set: conditioned avoidance response (CAR) in rats, shuttle box technique, oral. The data set is classed as in vivo. Particulars: Rattus norvegicus, read-out: ORAL CAR-ED50. The method, then: The apparatus employed is a box having a six-inch barrier separating two equal compartments. The floor of the left side of the box contains an electrified grid by means of which an intermittent shock is administered. The other side is not electrified. Rats are trained by placing them individually in the electrified compartment of the box and administering a foot shock which causes the rat to jump the barrier to the non-electrified side. […] The test drug is then administered in various doses to different groups of rats and the effect of the treatment in terms of the number of rats which fail to jump the barrier before receiving a foot shock is measured. That dose of test drug which will reduce the number of conditioned animals jumping the barrier before receiving a foot shock by one-half is referred to as the CAR-ED50.

The subject of the next data set is reserpine ptosis. Kind of data set: Prevention of reserpine ptosis in mice (anti-depressant). The format is in vivo.
Another data set concerns pernicious preening. The data set can be described thus: Prevention of pernicious preening in mice (anti-psychotic or analgetic). The data set is classed as in vivo. The conditions noted are these: Mus musculus, po.
The next data set relates to phenylquinone writhing. Kind of data set: Reduction of phenylquinone writhing in mice (analgesic). The data set is classed as in vivo. The conditions noted are these: Mus musculus, po.
For data set [2] the following is noted: U.S. Pat. No. 3,381,009; cited from earlier work.
Another data set has as its system schizophrenic patients. The conditions noted are these: et al. (1973), cited from earlier work.
The conditions of data set [3]: compared with imipramine; cited from earlier work.
Setting [4] is: rats, oral, dose reducing by one-half the number of conditioned animals jumping the barrier before foot shock.

The ED50 is the dose at which the effect has come halfway, by size or by number of responders.

For `CN(C)CCCN1c2ccccc2Sc2ccc(Cl)cc21` [Chlorpromazine], the ED50 in data set [1] (po) turned out to be 38.7 mg/kg.

As for `COc1ccccc1N1CCN(CCCCn2nc3ccccn3c2=O)CC1` [Formula I, R^1 = H, R^2 = 2-CH3 O, 2-[4-[4(2-Methoxphenyl)-1-piperazinyl]-butyl]-1,2,4-triazolo[4,3-a]pyridin-3-(2H)-one Hydrochloride], in data set [1] (setting [4]), the 50% effective dose (ED50) was found to be 18.4 mg/kg.

Turning to `Cl.O=c1n(CCCCN2CCN(c3cccc(C(F)(F)F)c3)CC2)nc2ccccn12` [Formula I, R^1 = H, R^2 = 3-CF3, 2-[4-[4-[3-(Trifluoromethyl)phenyl]-1-piperazinyl]butyl]-1,2,4-triazolo[4,3-a]pyridin-3(2H)-one Hydrochloride], the median effective dose (ED50) in data set [1] (setting [4]) turned out to be 11.4 mg/kg.

For `O=c1n(CCCCN2CCN(c3cccc(Cl)c3)CC2)nc2ccccn12` [Formula I, R^1 = H, R^2 = 3-Cl, 2-[4-[4-(3-Chlorophenyl)piperazin-1-yl]butyl]-1,2,4-triazolo[4,3-a]pyridin-3-(2H)-one], the “activity in prevention of reserpine ptosis” value in the data set on reserpine ptosis (at 15.7 mg/kg (p.o.)) is “inactive”. In addition, the ED50 in the data set on pernicious preening turned out to be 8 mg/kg; in data set [1] (setting [4]), 9 mg/kg; in the data set with phenylquinone writhing it was 23 mg/kg.

Turning to `O=c1n(CCCN2CCN(c3cccc(Cl)c3)CC2)nc2ccccn12` [Trazodone, 2-[3-[4-(3-chlorophenyl)-1-piperazinyl]-propyl]-1,2,4-triazolo[4,3-a]pyridin-3(2H)-one], in data set [2], the “pharmacological actions in animal tests” value was “tranquilizing action, hypotensive action, and analgesic action”. The ED50 in the data set on reserpine ptosis (Mus musculus, po) was 36 mg/kg; in the data set with pernicious preening it was 43 mg/kg; in data set [1] (setting [4]), 45.4 mg/kg. Besides, in the data set with schizophrenic patients (Ban), the “effect on depressive symptoms exhibited by schizophrenics” value is on record as “improvement in depressive symptoms”. Moreover, the “anti-psychotic action in schizophrenic patients” value in the data set on schizophrenic patients (Galvan) is “minimal”. The clinical antidepressant effectiveness result in data set [3] is on record as “equivalent in effectiveness to imipramine”. In data set [3], the “side effects in clinical use” value was “fewer side effects”.
